# Tested on: NBD1
# Assay: Aggregation analysis of NBD1 thermal stability by differential static light scattering (DSLS)
# Format: binding, Human
# Settings: compound at 100 μM; ΔTagg versus DMSO control
# Procedure: Purified recombinant NBD1 was produced using previously described methods (A. Schmidt, J. L. Mendoza, P. J. Thomas (2011) Biochemical and Biophysical Approaches to Probe CFTR Structure (365-376) M. D. Amaral, K. Kunzelmann (eds.), Cysic Fibrosis, Methods in Molecular Biology 741, Springer Science+Business Media). The effect of test compounds on thermal stability of NBD1 was evaluated by differential static light scattering (DSLS) using the Harbinger Stargazer-384 instrument (Epiphyte Three, Toronto, Canada). Test compounds were dissolved and diluted to desired concentrations in 100% DMSO. The compounds or DMSO controls (100 nL) were stamped into wells of a […] low volume optical plate (Corning Inc., Corning, NY) using the Echo 555 acoustic liquid handler (Labcyte Inc., San Jose, CA).
# NBD1 protein was diluted to 0.2 mg/ml in S200 buffer (50 mM Tris-HCl, 150 mM NaCl, 5 mM MgCl2, 2 mM ATP, 2 mM DTT, pH7.6) containing 1% glycerol. 10 uL of protein solution was aliquoted into the 384-well plate harboring the test compounds and 10 uL mineral oil was overlayed onto the protein solution, using the epMotion robotic liquid handler (Eppendorf North America, Hauppauge, NY). After placing into the Stargazer instrument, the plate was heated at 1° C. per minute to 70° C. Images were captured from 25° C. to 70° C. every 0.5° C. At the end of the experiment run, instrument software integrated image files and analyzed data automatically. A […] regression curve was generated for each well, representing the increase in light scattering over time. A temperature of aggregation (Tagg) was calculated based on the inflection point of the curve. To better compare data across experiments the average Tagg for DMSO control wells was calculated and subtracted from values for wells containing compounds to obtain a “ΔTagg” value. These ΔTagg values reflect stabilizing efficacy of the compounds.
row,Compound,DSLS NBD1/3D Human Stability delta-T (° C.) @ 100 (μM)
1,"CC(=O)NCc1c(Oc2cccc(-c3ncc(C(O)c4ccccc4)[nH]3)c2)ccc2[nH]ccc12 (stereo not shown) [Example 18, N-((5-(3-(5-(Hydroxy(phenyl)methyl)-1H-imidazol-2-yl)phenoxy)-1H-indol-4-yl)methyl)acetamide]",A (T ≥8° C.)
2,"O=C(O)c1c(Oc2cccc(-c3nnc(Cc4ccccc4)[nH]3)c2)ccc2[nH]ccc12 [Example 19, 5-(3-(5-Benzyl-4H-1,2,4-triazol-3-yl)phenoxy)-1H-indole-4-carboxylic acid]",B (4-8° C.)
3,"OCc1c(Oc2cccc(-c3nnc(Cc4ccccc4)[nH]3)c2)ccc2[nH]ccc12 [Example 20, (5-(3-(5-Benzyl-4H-1,2,4-triazol-3-yl)phenoxy)-1H-indol-4-yl)methanol]",B (4-8° C.)
4,"CC(C)NCc1c(Oc2cccc(-c3nnc(Cc4ccccc4)[nH]3)c2)ccc2[nH]ccc12 [Example 21, N-((5-(3-(5-Benzyl-4H-1,2,4-triazol-3-yl)phenoxy)-1H-indol-4-yl)methyl)propan-2-amine 2,2,2-trifluoroacetate]",B (4-8° C.)
5,"CNS(=O)(=O)c1c(Oc2ccc(F)c(-c3ncc(C(C)(O)c4ccccc4)[nH]3)c2)c(F)cc2[nH]ccc12 (stereo not shown) [Example 22, 6-Fluoro-5-(4-fluoro-3-(5-(1-hydroxy-1-phenylethyl)-1H-imidazol-2-yl)phenoxy)-N-methyl-1H-indole-4-sulfonamide]",B (4-8° C.)
6,"OCc1c(Oc2cccc(-c3ncn(Cc4ccccc4)n3)c2)ccc2[nH]ccc12 [Example 23, (5-(3-(1-Benzyl-1H-1,2,4-triazol-3-yl)phenoxy)-1H-indol-4-yl)methanol]",B (4-8° C.)
7,"CN(C)CCNC(c1ccccc1)c1nnc(-c2cccc(Oc3ccc4[nH]ccc4n3)c2)[nH]1 (stereo not shown) [Example 24, N1-((5-(3-((1H-Pyrrolo[3,2-b]pyridin-5-yl)oxy)phenyl)-4H-1,2,4-triazol-3-yl)(phenyl)methyl)-N2,N2-dimethylethane-1,2-diamine]",B (4-8° C.)
8,"CC(O)(c1ccccc1)c1c[nH]c(-c2cc(Oc3c(F)cc4[nH]ccc4c3CC(F)F)ccc2F)n1 (stereo not shown) [Example 25, 1-(2-(5-((4-(2,2-Difluoroethyl)-6-fluoro-1H-indol-5-yl)oxy)-2-fluorophenyl)-1H-imidazol-4-yl)-1-phenylethan-1-ol]",B (4-8° C.)
9,"O=C(O)c1c(Oc2cccc(-c3ncc(C(O)c4ccccc4)[nH]3)c2)ccc2[nH]ncc12 (stereo not shown) [Example 27, 5-(3-(5-(Hydroxy(phenyl)methyl)-1H-imidazol-2-yl)phenoxy)-1H-indazole-4-carboxylic acid]",C (≤4° C.)
10,"CNC(=O)CNC(=O)c1c(Oc2cccc(-c3ncc(C(O)c4ccccc4)[nH]3)c2)ccc2[nH]ncc12 (stereo not shown) [Example 28, 5-(3-(5-(Hydroxy(phenyl)methyl)-1H-imidazol-2-yl)phenoxy)-N-(2-(methylamino)-2-oxoethyl)-1H-indazole-4-carboxamide]",B (4-8° C.)
11,"c1ccc(Cc2nnc(-c3cncc(Oc4ccc5[nH]ccc5c4)c3)[nH]2)cc1 [Example 29, 5-((5-(5-Benzyl-4H-1,2,4-triazol-3-yl)pyridin-3-yl)oxy)-1H-indole]",C (≤4° C.)
12,"O=C(O)Cc1c[nH]c2ccc(Oc3cccc(-c4nnc(Cc5ccccc5)[nH]4)c3)cc12 [Example 30, 2-(5-(3-(5-Benzyl-4H-1,2,4-triazol-3-yl)phenoxy)-1H-indol-3-yl)acetic acid]",C (≤4° C.)
13,"[O-][S+](c1ccccc1)c1cnc(-c2cccc(Oc3ccc4[nH]ccc4c3)c2)[nH]1 (stereo not shown) [Example 31, 5-(3-(5-(Phenylsulfinyl)-1H-imidazol-2-yl)phenoxy)-1H-indole]",B (4-8° C.)
14,"O=S(=O)(c1ccccc1)c1cnc(-c2cccc(Oc3ccc4[nH]ccc4c3)c2)[nH]1 [Example 32, 5-(3-(5-(Phenylsulfonyl)-1H-imidazol-2-yl)phenoxy)-1H-indole]",B (4-8° C.)
15,"O=C(c1cccc(-c2nnc(Cc3ccccc3)[nH]2)c1)c1ccc2[nH]ccc2c1 [Example 34, (3-(5-Benzyl-4H-1,2,4-triazol-3-yl)phenyl)(1H-indol-5-yl)methanone]",C (≤4° C.)
16,"O=C(O)CC(c1cccc(-c2nnc(Cc3ccccc3)[nH]2)c1)c1ccc2[nH]ccc2c1 (stereo not shown) [Example 37, 3-(3-(5-Benzyl-4H-1,2,4-triazol-3-yl)phenyl)-3˜(1H-indol-5-yl)propanoic acid]",C (≤4° C.)

row,Compound,DSLS NBD1/3D Human Stability delta-T (° C.) @ 100 (μM)
1,"NC(=O)CC(c1cccc(-c2nnc(Cc3ccccc3)[nH]2)c1)c1ccc2[nH]ccc2c1 (stereo not shown) [Example 38, 3-(3-(5-Benzyl-4H-1,2,4-triazol-3-yl)phenyl)-3-(1H-indol-5-yl)propanamide]",C (≤4° C.)
2,"CC(O)(c1ccccc1)c1cnc(-c2cccc(Sc3ccc4[nH]ccc4c3)c2)[nH]1 (stereo not shown) [Example 39, 1-(2-(3-((1H-Indol-5-yl)thio)phenyl)-1H-imidazol-5-yl)-1-phenylethan-1-ol]",C (≤4° C.)
3,"CC(O)(c1ccccc1)c1cnc(-c2cccc([S+]([O-])c3ccc4[nH]ccc4c3)c2)[nH]1 (stereo not shown) [Example 40, 1-(2-(3-((1H-Indol-5-yl)sulfinyl)phenyl)-1H-imidazol-5-yl)-1-phenylethan-1-ol]",C (≤4° C.)
4,"O=C1NCc2c[nH]c3ccc(Oc4cccc(-c5nnc(Cc6ccccc6)[nH]5)c4)c1c23 [Example 42, 6-(3-(5-Benzyl-4H-1,2,4-triazol-3-yl)phenoxy)-3,4-dihydropyrrolo[4,3,2-de]isoquinolin-5(1H)-one]",C (≤4° C.)
5,"c1ccc(Cc2nnc(-c3cccc(Oc4ccc5[nH]cc6c5c4CNC6)c3)[nH]2)cc1 [Example 43, 6-(3-(5-Benzyl-4H-1,2,4-triazol-3-yl)phenoxy)-1,3,4,5-tetrahydropyrrolo[4,3,2-de]isoquinoline]",C (≤4° C.)
6,"Nc1cnc(-c2nnc(Cc3ccccc3)[nH]2)cc1Oc1ccc2[nH]ccc2c1 [Example 44, 4-((1H-Indol-5-yl)oxy)-6-(5-benzyl-4H-1,2,4-triazol-3-yl)pyridin-3-amine]",B (4-8° C.)
7,"c1ccc(Cc2nnc(-c3cccc(Oc4ccc5[nH]cc6c5c4CNCC6)c3)[nH]2)cc1 [Example 46, 9-(3-(5-Benzyl-4H-1,2,4-triazol-3-yl)phenoxy)-2,3,4,6-tetrahydro-1H-azepino[5,4,3-cd]indole]",C (≤4° C.)
8,"c1ccc(Cc2coc(-c3cccc(Oc4ccc5[nH]ccc5c4)c3)n2)cc1 [Example 47, 2-(3-((1H-Indol-5-yl)oxy)phenyl)-4-benzyloxazole]",C (≤4° C.)
9,"OCc1c(Oc2cccc(-c3nc(Cc4ccccc4)cs3)c2)ccc2[nH]ccc12 [Example 48, (5-(3-(4-Benzylthiazol-2-yl)phenoxy)-1H-indol-4-yl)methanol]",C (≤4° C.)
10,"Nc1ccc(-c2n[nH]c(Cc3ccccc3)n2)cc1Oc1ccc2[nH]ccc2c1 [Example 49, 2-((1H-Indol-5-yl)oxy)-4-(5-benzyl-1H-1,2,4-triazol-3-yl)aniline]",B (4-8° C.)
11,"CC(=O)NCc1c(Oc2cccc(-c3nnc(Cc4ccccc4)[nH]3)c2)ccc2[nH]ccc12 [Example 50, N-((5-(3-(5-Benzyl-4H-1,2,4-triazol-3-yl)phenoxy)-1H-indol-4-yl)methyl)acetamide]",B (4-8° C.)
12,"NC(=O)Cc1c(Oc2cccc(-c3nnc(Cc4ccccc4)[nH]3)c2)ccc2[nH]ccc12 [Example 51, 2-(5-(3-(5-Benzyl-4H-1,2,4-triazol-3-yl)phenoxy)-1H-indol-4-yl)acetamide]",B (4-8° C.)
13,"OC(c1ccccc1)c1cnc(-c2cccc(Oc3ccc4[nH]ccc4n3)c2)[nH]1 (stereo not shown) [Example 52, (2-(3-((1H-Pyrrolo[3,2-b]pyridin-5-yl)oxy)phenyl)-1H-imidazol-5-yl)(phenyl)methanol]",B (4-8° C.)
14,"CC(O)(c1ccccc1)c1cnc(-c2cccc(Oc3ccc4[nH]ccc4n3)c2)[nH]1 (stereo not shown) [Example 53, 1-(2-(3-((1H-Pyrrolo[3,2-b]pyridin-5-yl)oxy)phenyl)-1H-imidazol-5-yl)-1-phenylethan-1-ol]",B (4-8° C.)
15,"CN(C)CCNC(c1ccccc1)c1c[nH]c(-c2cccc(Oc3ccc4[nH]ccc4n3)c2)n1 (stereo not shown) [Example 54, N1-((2-(3-((1H-pyrrolo[3,2-b]pyridin-5-yl)oxy)phenyl)-1H-imidazol-5-yl)(phenyl)methyl)-N2,N2-dimethylethane-1,2-diamine]",B (4-8° C.)
